Data from ChEMBL document CHEMBL3352261, “Discovery of inhibitors of the mitotic kinase TTK based on N-(3-(3-sulfamoylphenyl)-1H-indazol-5-yl)-acetamides and carboxamides” (Bioorg Med Chem, 2014).
Activity calls are given as the source filed them. No cut-off for these calls is given here.

Legend:
Cytochrome P450 2D6 = Cytochrome P450 2D6 (Homo sapiens, UniProt P10635); assay: Inhibition of CYP2D6 in supersomes (unknown origin) using AMMC as substrate after 30 mins; type: ADME
Aurora kinase A = molecular target: T1, Aurora kinase A (Homo sapiens, UniProt O14965); assay: Inhibition of Aurora A (unknown origin) by FRET-based homogenous assay
T1 sequence (O14965 whole entry): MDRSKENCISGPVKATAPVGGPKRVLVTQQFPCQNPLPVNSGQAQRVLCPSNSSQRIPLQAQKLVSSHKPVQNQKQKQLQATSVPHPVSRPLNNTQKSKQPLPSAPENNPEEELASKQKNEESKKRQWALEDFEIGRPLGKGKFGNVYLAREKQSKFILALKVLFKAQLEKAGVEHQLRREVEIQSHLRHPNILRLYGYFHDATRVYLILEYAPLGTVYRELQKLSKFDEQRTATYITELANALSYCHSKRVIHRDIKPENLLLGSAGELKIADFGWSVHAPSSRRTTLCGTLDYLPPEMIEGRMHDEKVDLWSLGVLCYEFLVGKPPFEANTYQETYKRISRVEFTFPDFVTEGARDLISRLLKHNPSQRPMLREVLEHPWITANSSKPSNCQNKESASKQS

Cytochrome P450 2C19 = Cytochrome P450 2C19 (Homo sapiens, UniProt P33261); assay: Inhibition of CYP2C19 in supersomes (unknown origin) using MFC as substrate after 30 mins; type: ADME
Sequence of Cytochrome P450 2C19 (P33261 whole entry): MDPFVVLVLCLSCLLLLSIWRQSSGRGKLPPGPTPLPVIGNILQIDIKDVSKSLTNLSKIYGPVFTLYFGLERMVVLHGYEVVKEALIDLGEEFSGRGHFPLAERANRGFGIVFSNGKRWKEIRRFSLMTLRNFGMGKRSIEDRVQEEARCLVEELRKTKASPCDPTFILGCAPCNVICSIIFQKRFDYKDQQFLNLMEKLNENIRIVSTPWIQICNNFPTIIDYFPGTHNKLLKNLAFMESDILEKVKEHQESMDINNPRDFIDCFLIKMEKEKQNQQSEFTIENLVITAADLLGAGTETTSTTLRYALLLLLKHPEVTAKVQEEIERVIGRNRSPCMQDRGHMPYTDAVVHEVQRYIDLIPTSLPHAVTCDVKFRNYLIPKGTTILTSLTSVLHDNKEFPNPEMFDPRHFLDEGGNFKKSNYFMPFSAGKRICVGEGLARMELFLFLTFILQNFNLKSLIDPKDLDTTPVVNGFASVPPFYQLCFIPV

Cytochrome P450 3A4 [1] = molecular target: T2, Cytochrome P450 3A4 (Homo sapiens, UniProt P08684); assay: Inhibition of CYP3A4 in supersomes (unknown origin) using Dibenzylfluorescein as substrate after 10 mins; type: ADME
T2 sequence (P08684 whole entry, the tested form may be a part): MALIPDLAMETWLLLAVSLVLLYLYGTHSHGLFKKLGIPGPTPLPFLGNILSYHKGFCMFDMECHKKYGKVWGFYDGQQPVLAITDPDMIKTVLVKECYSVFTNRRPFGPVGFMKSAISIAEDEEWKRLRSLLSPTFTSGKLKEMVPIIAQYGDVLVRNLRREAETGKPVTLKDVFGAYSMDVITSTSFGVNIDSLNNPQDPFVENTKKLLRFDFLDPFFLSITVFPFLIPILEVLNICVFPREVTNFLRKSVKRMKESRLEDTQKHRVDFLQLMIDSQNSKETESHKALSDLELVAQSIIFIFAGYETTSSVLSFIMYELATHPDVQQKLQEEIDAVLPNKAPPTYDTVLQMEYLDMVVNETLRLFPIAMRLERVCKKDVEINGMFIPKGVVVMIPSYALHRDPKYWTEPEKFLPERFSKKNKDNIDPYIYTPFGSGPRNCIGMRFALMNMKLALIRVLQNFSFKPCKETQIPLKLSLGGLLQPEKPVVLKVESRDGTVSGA

[2] = molecular target: T3, Dual specificity protein kinase TTK (Homo sapiens, UniProt P33981); assay: Inhibition of SUMO-tagged human TTK (1-275 residues) compound pre-incubated for 15 mins prior ATP addition by MBP-based assay
T3 sequence (P33981 whole entry): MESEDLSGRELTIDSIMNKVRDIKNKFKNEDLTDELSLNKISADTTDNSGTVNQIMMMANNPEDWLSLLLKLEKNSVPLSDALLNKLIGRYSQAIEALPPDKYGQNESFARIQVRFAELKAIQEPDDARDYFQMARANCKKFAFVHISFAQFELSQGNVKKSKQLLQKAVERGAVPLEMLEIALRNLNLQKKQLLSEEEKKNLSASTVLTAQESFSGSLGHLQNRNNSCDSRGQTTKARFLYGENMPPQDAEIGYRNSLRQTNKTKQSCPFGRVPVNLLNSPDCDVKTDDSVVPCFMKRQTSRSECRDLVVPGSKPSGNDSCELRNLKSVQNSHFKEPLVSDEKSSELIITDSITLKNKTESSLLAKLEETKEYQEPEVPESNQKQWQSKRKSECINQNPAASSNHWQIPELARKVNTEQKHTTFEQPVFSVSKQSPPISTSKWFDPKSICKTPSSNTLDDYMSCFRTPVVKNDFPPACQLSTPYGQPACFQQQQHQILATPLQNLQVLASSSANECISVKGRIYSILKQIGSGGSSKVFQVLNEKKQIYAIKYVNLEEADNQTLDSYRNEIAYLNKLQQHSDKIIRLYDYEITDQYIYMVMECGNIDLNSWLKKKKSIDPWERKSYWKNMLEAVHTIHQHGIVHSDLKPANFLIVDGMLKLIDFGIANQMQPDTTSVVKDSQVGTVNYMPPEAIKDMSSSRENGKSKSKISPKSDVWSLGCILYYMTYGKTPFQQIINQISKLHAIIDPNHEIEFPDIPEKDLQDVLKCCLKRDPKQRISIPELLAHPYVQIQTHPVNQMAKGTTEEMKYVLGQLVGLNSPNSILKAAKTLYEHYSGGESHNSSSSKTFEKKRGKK

[3] = Growth inhibition of human HCT116 cells after 5 days by SRB assay; type: functional; details: HCT-116, 120 h
Cytochrome P450 3A4 [4] = molecular target: T2, Cytochrome P450 3A4; assay: Inhibition of CYP3A4 in supersomes (unknown origin) using 7-benzyloxy-4-trifluoromethylcoumarin as substrate after 30 mins; type: ADME
[5] = Cell cycle arrest in human HCT116 cells assessed as accumulation at sub-G1 phase at 1 uM after 2 days by flow cytometry; type: functional, cell-based; details: HCT-116
[6] = molecular target: Serine/threonine-protein kinase PLK1 (Homo sapiens, UniProt P53350); assay: Inhibition of PLK1 (unknown origin) by FRET-based homogenous assay
Sequence of Serine/threonine-protein kinase PLK1 (P53350 whole entry): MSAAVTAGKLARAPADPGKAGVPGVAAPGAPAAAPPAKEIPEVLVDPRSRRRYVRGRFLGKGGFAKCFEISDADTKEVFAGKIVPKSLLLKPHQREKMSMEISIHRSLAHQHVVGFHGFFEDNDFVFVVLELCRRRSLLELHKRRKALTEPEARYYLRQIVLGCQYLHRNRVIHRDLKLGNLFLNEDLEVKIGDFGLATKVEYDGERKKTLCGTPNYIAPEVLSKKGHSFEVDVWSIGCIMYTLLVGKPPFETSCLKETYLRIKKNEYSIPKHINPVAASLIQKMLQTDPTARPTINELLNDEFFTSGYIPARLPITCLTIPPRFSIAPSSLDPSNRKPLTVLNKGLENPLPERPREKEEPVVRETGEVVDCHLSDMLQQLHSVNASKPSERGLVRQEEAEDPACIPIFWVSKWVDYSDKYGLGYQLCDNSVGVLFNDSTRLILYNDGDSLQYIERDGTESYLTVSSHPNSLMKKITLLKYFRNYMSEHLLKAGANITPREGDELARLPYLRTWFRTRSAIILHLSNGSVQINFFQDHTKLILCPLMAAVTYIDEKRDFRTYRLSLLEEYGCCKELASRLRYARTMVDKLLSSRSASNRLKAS

[7] = molecular target: T3, Dual specificity protein kinase TTK; assay: Inhibition of TTK in human HCT116 cells assessed as phosphorylation of histone H3 at Ser10 residue after 4 hrs by immunoassay; type: cell-based, HCT-116
[8] = molecular target: T4, Serine/threonine-protein kinase PLK4 (Homo sapiens, UniProt O00444); assay: Inhibition of GST-tagged human PLK4 (1-391 residues) phosphorylation by ELISA
T4 sequence (O00444 whole entry): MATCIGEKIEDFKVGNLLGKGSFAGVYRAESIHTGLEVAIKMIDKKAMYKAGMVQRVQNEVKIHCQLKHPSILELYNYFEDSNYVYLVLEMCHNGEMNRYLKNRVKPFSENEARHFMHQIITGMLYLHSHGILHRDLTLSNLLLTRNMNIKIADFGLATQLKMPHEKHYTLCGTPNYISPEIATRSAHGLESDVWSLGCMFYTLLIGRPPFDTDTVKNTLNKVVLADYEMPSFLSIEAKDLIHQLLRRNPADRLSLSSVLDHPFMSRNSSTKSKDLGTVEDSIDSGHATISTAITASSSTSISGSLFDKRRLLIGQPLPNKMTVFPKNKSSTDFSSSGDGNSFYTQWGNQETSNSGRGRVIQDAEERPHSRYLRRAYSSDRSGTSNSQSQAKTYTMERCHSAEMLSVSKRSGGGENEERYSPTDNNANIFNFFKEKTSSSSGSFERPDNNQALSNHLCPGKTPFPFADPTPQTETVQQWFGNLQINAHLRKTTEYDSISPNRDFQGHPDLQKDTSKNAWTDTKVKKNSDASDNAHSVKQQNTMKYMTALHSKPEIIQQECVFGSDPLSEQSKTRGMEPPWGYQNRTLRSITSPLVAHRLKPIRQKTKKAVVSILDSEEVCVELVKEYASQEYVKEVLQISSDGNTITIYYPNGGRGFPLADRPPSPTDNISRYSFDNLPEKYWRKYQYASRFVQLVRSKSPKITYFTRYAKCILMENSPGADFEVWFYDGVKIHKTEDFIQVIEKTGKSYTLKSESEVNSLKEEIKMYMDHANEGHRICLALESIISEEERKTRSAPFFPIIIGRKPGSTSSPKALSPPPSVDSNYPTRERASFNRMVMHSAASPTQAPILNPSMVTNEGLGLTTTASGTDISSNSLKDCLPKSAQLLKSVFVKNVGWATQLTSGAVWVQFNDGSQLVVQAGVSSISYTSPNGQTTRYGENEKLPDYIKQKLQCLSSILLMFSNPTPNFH

[9] = molecular target: Serine/threonine-protein kinase Chk2 (Homo sapiens, UniProt O96017); assay: Inhibition of CHK2 (unknown origin) by FRET-based homogenous assay
Sequence of Serine/threonine-protein kinase Chk2 (O96017 whole entry): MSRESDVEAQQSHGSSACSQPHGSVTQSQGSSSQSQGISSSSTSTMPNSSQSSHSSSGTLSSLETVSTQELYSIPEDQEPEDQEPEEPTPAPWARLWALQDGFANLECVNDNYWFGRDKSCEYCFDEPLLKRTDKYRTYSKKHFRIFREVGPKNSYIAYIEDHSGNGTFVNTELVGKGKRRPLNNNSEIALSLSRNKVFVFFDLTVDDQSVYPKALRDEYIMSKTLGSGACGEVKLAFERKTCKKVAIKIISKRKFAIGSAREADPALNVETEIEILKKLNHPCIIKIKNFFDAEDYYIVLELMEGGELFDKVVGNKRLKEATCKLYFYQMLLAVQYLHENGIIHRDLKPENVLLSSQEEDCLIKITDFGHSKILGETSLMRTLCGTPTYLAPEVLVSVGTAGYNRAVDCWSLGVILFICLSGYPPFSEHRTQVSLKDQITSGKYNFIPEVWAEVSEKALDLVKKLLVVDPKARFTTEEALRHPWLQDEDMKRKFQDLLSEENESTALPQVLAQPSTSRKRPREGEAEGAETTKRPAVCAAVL

Aurora kinase B = Aurora kinase B (Homo sapiens, UniProt Q96GD4); assay: Inhibition of Aurora B (unknown origin) by FRET-based homogenous assay
Sequence of Aurora kinase B (Q96GD4 whole entry): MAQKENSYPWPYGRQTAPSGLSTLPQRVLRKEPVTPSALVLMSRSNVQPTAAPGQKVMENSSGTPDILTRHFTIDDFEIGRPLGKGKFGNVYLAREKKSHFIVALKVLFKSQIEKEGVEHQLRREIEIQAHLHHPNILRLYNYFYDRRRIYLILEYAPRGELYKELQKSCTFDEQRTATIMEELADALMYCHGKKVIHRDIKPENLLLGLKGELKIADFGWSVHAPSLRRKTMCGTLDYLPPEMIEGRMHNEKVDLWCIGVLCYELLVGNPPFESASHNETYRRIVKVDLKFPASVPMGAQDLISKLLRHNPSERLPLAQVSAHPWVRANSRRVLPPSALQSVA

A549 = assay: Growth inhibition of human A549 cells after 5 days by SRB assay; type: functional; details: A549, 120 h

Sequence of Cytochrome P450 2D6 (P10635 whole entry): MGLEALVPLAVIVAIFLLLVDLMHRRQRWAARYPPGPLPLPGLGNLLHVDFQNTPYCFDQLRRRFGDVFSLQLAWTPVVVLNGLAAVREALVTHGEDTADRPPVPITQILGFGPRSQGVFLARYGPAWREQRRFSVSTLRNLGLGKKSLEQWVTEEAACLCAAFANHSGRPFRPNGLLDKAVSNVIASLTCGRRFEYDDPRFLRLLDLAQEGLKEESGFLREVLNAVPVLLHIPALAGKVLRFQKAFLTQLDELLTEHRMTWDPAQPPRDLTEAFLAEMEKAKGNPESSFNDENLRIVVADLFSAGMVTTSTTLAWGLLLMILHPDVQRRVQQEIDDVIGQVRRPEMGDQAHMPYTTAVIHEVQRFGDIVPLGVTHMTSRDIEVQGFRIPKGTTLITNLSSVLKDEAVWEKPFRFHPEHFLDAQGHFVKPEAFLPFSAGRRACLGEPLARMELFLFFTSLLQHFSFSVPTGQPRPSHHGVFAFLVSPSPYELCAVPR

SMILES | IC50 (Cytochrome P450 2D6) [nM] | IC50 (Aurora kinase A) [nM] | IC50 (Cytochrome P450 2C19) [nM] | IC50 (Cytochrome P450 3A4 [1]) [nM] | IC50 [2] [nM] | GI50 [3] [nM] | IC50 (Cytochrome P450 3A4 [4]) [nM] | Activity [5] | IC50 [6] [nM] | EC50 [7] [nM] | IC50 [8] [nM] | IC50 [9] [nM] | IC50 (Aurora kinase B) [nM] | GI50 (A549) [nM]
CCc1ccccc1C(C(=O)Nc1ccc2[nH]nc(-c3cccc(S(N)(=O)=O)c3)c2c1)N(C)C (racemic) | 5000 | 400 | 2300 | 2900 | 3.6 | 100 | 700 | Active | > 50000 | 520 | 83 | 420 | 480 | 160
NS(=O)(=O)c1cccc(-c2n[nH]c3ccc(NC(=O)C(c4ccsc4)N4CCCC4)cc23)c1 (racemic) | 10000 | 900 | 5300 | > 1000 | 2.9 | 70 | 4000 | Active | > 50000 | 420 | 89 | 100 | 720 | 90
